# Test results published in patent publication US7906484B2, “Complex for transferring an anionic substance into a cell” (Alnylam Pharmaceuticals, Inc., priority 2006, dated 2011).
# No end group written: not given here.
# Columns and labels:
# cell viability = experiment: CytoTox ONE cell viability assay; format: cell-based; conditions: 2.5 μM peptide
# Method: Delivery of siRNAs was tested in 7 different cell lines we obtained from the American Type Culture Collection, ATCC, via LCG Promochem GmbH, Wesel, Germany (PC12, ATTC# CRL-1721; HCT116, ATCC# CCL-247; C33A, ATCC# HTB-31; H441, ATCC# HTB-174; NMuLi, ATCC# CRL-1638; HepG2, ATCC# HB-8065; HeLa S3, ATCC# CCL2.2) and in the cell line KB-BCL2-GFP, as described in co-pending U.S. Ser. No. 10/941,663. Target mRNA quantification was performed using the QuantiGene™ bDNA-kit from Panomics, Inc., Fremont, USA, according to the manufacturers instructions, and essentially as described below for H441 cells. Genes constitutively expressed in the various cell lines were chosen as targets and results normalized to GAPDH expression. siRNA concentration was 250 nM, the concentration of the peptide was chosen as given by the molar ratio peptide/siRNA shown in Table 1. Cytotoxicity of peptides was evaluated employing the CytoTox-ONE™ assay (Promega GmbH, Mannheim, Germany).
# Potential cytotoxic effects as mediator of inhibition were ruled out by determining cell viability in the presence of 2.5 μM of ppTG20, AP-0, AP-1, AP-27, AP-30, AP32 and AP-34 using the CytoTox ONE™ assay (Promega GmbH, Mannheim, Germany).
# [1] = system: E6AP mRNA in HCT116 cells; experiment: siRNA AD-8724 delivery into HCT116 cells, inhibition of E6AP mRNA expression by bDNA assay; format: cell-based, human; conditions: 4° C., siRNA/peptide conc. 250 nM/2.5 μM
# eGFP-mRNA = experiment: Influence of peptide/siRNA ratio on siRNA activity in HCT116 cells; format: cell-based; conditions: 250 nM siRNA
# Method: The optimal ratio of (peptide):(anionic substance) for complex formation, was determined in section 3 above to lie in the range of 8:1 to 13:1 by titrating a fixed concentration of the anionic substance with increasing amounts of the peptide, and monitoring complex formation by electrophoresis of the mixture. To further validate and possibly narrow down the optimum ratio of peptide/anionic substance, an assay with a functional readout was performed. HCT116 cells were incubated with siRNA complexes as described above at concentrations such that the amount of siRNA in the incubation mixture corresponds to a 250 nM concentration of the siRNA, and the peptide/siRNA ratio was 8:1, 10:1, 12:1, or 14:1.
# [2] = system: E6AP mRNA in HCT116 cells; experiment: siRNA AD-8724 delivery into HCT116 cells, inhibition of E6AP mRNA expression by bDNA assay; format: cell-based, human; conditions: for capacity for cross membrane transport of siRNA (quantity not given): 37° C., siRNA/peptide conc. 250 nM/2.5 μM
# Method: All further experiments were carried out using HCT116 cells and inhibition of E6AP expression as readout.
# HCT116-cells were obtained from the American Type Culture Collection (ATCC# CCL-247). They were cultured in McCoy's 5A medium (Biochrom AG, Berlin, Germany, Cat.# F1015) containing 10% fetal calf serum (FCS; Biochrom AG, Berlin, Germany, Cat.# S0115) and 2 mM L-Glutamin (Biochrom AG, Berlin, Germany, Cat.#: K0283) (standard growth medium). For incubation with peptide/siRNA, complexes, the medium was replaced by serum-free McCoy's 5A medium containing 2 mM L-Glutamin (serum free medium). After incubation with complexes for 4 h, McCoy's 5A medium containing 30% fetal calf serum and 2 mM L-Glutamin (triple FCS medium) was added to restore an overall 10% FCS in the medium.
# The E6AP-specific siRNA denoted AD-8724 herein was used, having the following sequences: antisense strand: 5′-ucacauuccacguuaggugTsT-3′ (SEQ ID NO:51), sense strand 5′-caccuaacguggaaugugaTsT-3′; (SEQ ID NO:52; lower case letters: ribonucleotides; s: phosphorothioate backbone linkage). As a negative control, an siRNA specific for eGFP, denoted AD-5107 herein, was used, having the following sequences: antisense strand: 5′-aagucgugcugcuucauguggOMesuOMesc-3′ (SEQ ID NO:19), sense strand 5′-[…]-3′ (SEQ ID NO:18; lower case letters: ribonucleotides; subscript OMe: 2′-O-methyl-ribonucleotide; s: phosphorothioate backbone linkage). In addition to the non-specific control siRNA AD-5107, mock transfected cells treated with standard growth medium only were used as negative controls. As a positive control, AD-8724 was transfected into the cells using Lipofectamine2000™ (Invitrogen, Karlsruhe, Germany, Cat. No. 11668-019). As a further control, AD-5107 was transfected into cells using Lipofectamine2000™. All assays were performed in quadruplicates.
# SiRNA/peptide complexes were prepared by mixing a solution of the siRNA in deionized water with a solution of the peptide in deionized water at the appropriate concentrations to give the desired ratio of siRNA/peptide at the desired concentration of the complex. The mixture was incubated at room temperature for 30 min and kept at 4° C. until use, and used within 24 h.
# For transfections with siRNA/peptide complexes, 1.5×10^5 HCT116-cells per well in 150 μl standard growth medium were seeded into polystyrene 96 well plates and grown for 24 h at 37° C. in an atmosphere containing 5% CO2. The medium was removed by aspiration, and 90 μl serum-free medium and 10 μl of siRNA/peptide complex solution were added. Cells were incubated for 4 h at 37° C./5% CO2, 50 μl triple FCS medium were added, and the cells incubated for another 20 h under identical conditions. Subsequently, E6AP mRNA content was determined as described below.
# For Lipofectamine2000™ transfections, 0.5 μl Lipofectamine2000™ were mixed with 12 μl OptiMem™ (Invitrogen, Karlsruhe, Germany, Cat. No. 11058-021) and incubated for 15 min. 1 μl of a 5 μM solution of the respective siRNA in PBS (Biochrom AG, Berlin, Germany, Cat-No: L182-05) were added to 11.5 μl OptiMeM™, mixed with the Lipofectamine2000™/OptiMem™ solution, and incubated for further 15 min. 1.5×10^5 HCT116-cells per well in 150 μl standard growth medium were grown for 24 h as described above, the growth medium removed from the cells by aspiration, and 75 μl fresh standard growth medium and the 25 μl of the siRNA/Lipofectamine2000™ mix were added to the well, to give a final siRNA concentration of 50 nM. The cells were incubated for 24 h at 37° C./5% CO2 and E6AP mRNA concentration determined.
# The QuantiGene™ bDNA-kit from Panomics, Inc., Fremont, USA, was used according to manufacturer's instructions. Briefly, cells were lysed by adding 50 μl of Lysis Mixture (from QuantiGene bDNA-kit) to each well and incubation at 53° C. for 1 h. […]
# [3] = system: ENaC-alpha mRNA in H441 cells; experiment: siRNA delivery into H441 cells, ENaC-alpha mRNA quantified by bDNA assay; format: cell-based, human; conditions: AD-7007
# Method: In order to test the potential of adding Histidine residues for improving the cross-membrane transport properties of peptides, we synthesized a modified ppTG20, termed ppTGHis herein, wherein 4 consecutive Histidine moieties were added to the C-terminus of ppTG20. We then compared the transport of siRNAs complexed with ppTG20 or ppTGHis into H441 cells, as evaluated by the ability of siRNAs to inhibit the expression of a gene constitutively expressed in H441 cells, ENaC-alpha. […]
# For transfection with peptide/siRNA complexes, H441 cells were seeded at 1.5×10^4 cells/well on 96-well plates (Greiner Bio-One GmbH, Frickenhausen, Germany) in 75 μl of growth medium. […] Thereafter, the cells were lysed by adding 50 μl of lysis mixture (content of the QuantiGene bDNA-kit from Panomics, Inc., Fremont, USA) to each well containing 100 μl of growth medium at 53° C. for 30 min, and ENaC mRNA levels were subsequently quantified with the Quantigene Explore Kit (Panomics, Inc., Dumbarton Circle Fremont, USA, cat. No. QG-000-02) according to the manufacturer's protocol. Finally, chemoluminescence was measured in a Victor2-Light (Perkin Elmer, Wiesbaden, Germany) as RLUs (relative light units) and values obtained with the hENaC probeset were normalized to the respective GAPDH values for each well (probe sequences shown in Table 2 and Table 3). […]
# [4] = AD-8724, siRNA/peptide conc. 25 nM/250 nM
# [5] = AD-8724, siRNA/peptide conc. 250 nM/2.5 μM
# [6] = AD-8724, siRNA/peptide conc. 1 μM/10 μM
# [7] = siRNA AD-8724 250 nM, molar peptide/siRNA ratio 12.5:1
sequence,measurement,setting,value
RLFRALLRLLRSLWRLLLRAHHHHHHHHHH [AP-34],cell viability,cell viability,None of these peptides led to a significant alteration of cell viability
HHHHHRLFRALLRLLRSLWRLLLRAHHHHH [AP-32],cell viability,cell viability,None of these peptides led to a significant alteration of cell viability
GLFRALLRLLRSLWRLLLRAHHHHH [AP-0],cell viability,cell viability,None of these peptides led to a significant alteration of cell viability
RLFRALLRLLRSLWRLLLRAHHHHH [AP-27],cell viability,cell viability,None of these peptides led to a significant alteration of cell viability
HLFRALLRLLRHLWRLLLRA [AP-10],capacity for cross membrane transport of siRNA (quantity not given),[1],81 ± 16%
same,Remaining eGFP-mRNA in % of mock-transfected controls,eGFP-mRNA; peptide/siRNA ratio 8:1,42 ± 3%
same,Remaining eGFP-mRNA in % of mock-transfected controls,eGFP-mRNA; peptide/siRNA ratio 10:1,24 ± 4%
same,Remaining eGFP-mRNA in % of mock-transfected controls,eGFP-mRNA; peptide/siRNA ratio 12:1,24 ± 2%
same,Remaining eGFP-mRNA in % of mock-transfected controls,eGFP-mRNA; peptide/siRNA ratio 14:1,32 ± 4%
same,capacity for cross membrane transport of siRNA (quantity not given),[2],13 ± 8%
same,remaining E6AP mRNA (in % of mock),[2]; [4],98 ± 8%
same,remaining E6AP mRNA (in % of mock),[2]; [5],28 ± 4%
same,remaining E6AP mRNA (in % of mock),[2]; [6],17 ± 1%
same,remaining E6AP mRNA (in % of mock),[2]; [7],41 ± 21%
"GLFRALLRLLRSLWRLLLRAHHHH [ppTGHis, ppTG20 with 4 histidines added to the C-terminus]",transfection efficiency and resulting siRNA activity compared with Lipofectamine,[3],comparable to that of Lipofectamine™
same,transfection efficiency and resulting siRNA activity relative to ppTG20,[3],approximately 10 fold
"GLFRALLRLLRSLWRLLLRA [ppTG20, reference compound]",cell viability,cell viability,None of these peptides led to a significant alteration of cell viability
HHHHHRLFRALLRLLRSLWRLLLRA [AP-30],cell viability,cell viability,None of these peptides led to a significant alteration of cell viability
RLFRALLRLLRSLWRLLLRA [AP-1],cell viability,cell viability,None of these peptides led to a significant alteration of cell viability
RLFRALLRLLRSLWRLLRRA [AP-4],capacity for cross membrane transport of siRNA (quantity not given),[1],56 ± 4%
same,Remaining eGFP-mRNA in % of mock-transfected controls,eGFP-mRNA; peptide/siRNA ratio 8:1,23 ± 6%
same,Remaining eGFP-mRNA in % of mock-transfected controls,eGFP-mRNA; peptide/siRNA ratio 10:1,18 ± 6%
same,Remaining eGFP-mRNA in % of mock-transfected controls,eGFP-mRNA; peptide/siRNA ratio 12:1,52 ± 6%
same,Remaining eGFP-mRNA in % of mock-transfected controls,eGFP-mRNA; peptide/siRNA ratio 14:1,43 ± 4%
same,capacity for cross membrane transport of siRNA (quantity not given),[2],30 ± 5% RT
same,remaining E6AP mRNA (in % of mock),[2]; [4],96 ± 24%
same,remaining E6AP mRNA (in % of mock),[2]; [5],49 ± 11%
same,remaining E6AP mRNA (in % of mock),[2]; [6],37 ± 9%
same,remaining E6AP mRNA (in % of mock),[2]; [7],34 ± 6%
